Data as given in patent publication US20210163437A1, “DERIVATIVES OF TRICYCLIC SPIROLACTONES AND USES THEREOF IN TREATMENT AND MANAGEMENT OF PAIN” (Yissum Research Development Company of The Hebrew …, priority 2017, published 2021).
“And” between values parts separate entries of the source, which are not always exact repeats. Equal values may be shown once. “Also recorded” adds a separate entry of the source.

Assays:
Type in all cases: cell-based
rat TRPV1 (rTRPV1) [1] = target: T1, rat TRPV1 (rTRPV1) (Rattus norvegicus, UniProt O35433); test: live-cell calcium imaging of HEK293T cells transiently expressing rat TRPV1; details: for compound-evoked calcium response normalized to the capsaicin (2 μM)-evoked response: compound 300 μM (0.3 mM), fura-2-loaded HEK293T transiently expressing rTRPV1, only capsaicin positive cells analyzed
T1 construct: expressed in transfected cells; host or cells: HEK293T (transient)
Protocol: (3A) Top: Captured pseudocolor images of fura-2-loaded HEK293T cells transiently expressing rTRPV1, before (“Basal”) and after the application of synthesized tricyclic spirolactones (300 μM; ‘Comp.’), followed by the subsequent application of capsaicin (2 μM; “Cap”). Scale bar indicates level of intracellular calcium. Bottom: Box and whiskers plot showing the indicated compound (300 μM)-evoked calcium response of HEK293T cells expressing rTRPV1, normalized to the capsaicin (2 μM)-evoked response. Boxes represent the mean of 3-4 independent experiments (each n≥50 cells); only capsaicin-positive cells were analyzed. Statistical significance between the different compounds' normalized responses is indicated as follows: *p≤0.05; ***p≤0.001; ns, no statistical significance (ANOVA followed by multiple comparison test). (3B) Top: Captured pseudocolor images of fura-2-loaded HEK293T cells transiently expressing the wt rTRPV1 (“rV1”; top), chicken TRPV1 (“cV1”; middle), or the VBS mutated receptor rTRPV1-Y511G (“YG”; bottom), before (“Basal”) and after the application of compound 13 (300 μM; “13”), which was followed by the subsequent application of 2-APB (300 μM; “2APB”). Scale bar indicates level of intracellular calcium. Bottom: changes with time of intracellular calcium levels in fura-2-loaded HEK293T expressing rat TRPV1 (“rTRPV1”; red line), rat TRPV1-Y511G (“rTRPV1(YG)”; purple line), and chicken TRPV1 (“cTRPV1”; orange line) in response to compound 13 (300 μM; “13”; light gray bar), which was followed by the subsequent application of 2-APB (300 μM; “2APB”; gray bar). Each trace represents an average of 75-130 cells sensitive to 2-APB. […] (3C) Top: Captured pseudocolor images of fura-2-loaded HEK293T cells transiently expressing rTRPV1, before (“Basal”) and after the application of saturated tricyclic spirolactones (300 μM; “Comp.”), which was followed by the subsequent application of capsaicin (2 μM; “Cap”). Scale bar indicates the level of intracellular calcium. […] Boxes represent the mean of 3-4 independent experiments (each n≥50 cells); only capsaicin positive cells were analyzed. Statistical significance between the different compounds' normalized responses is indicated as follows: **p≤0.01; ***p≤0.001; ns, no statistical significance (ANOVA followed by multiple comparison test).
(§1) To examine whether the compact tricyclic spirolactones activate TRPV1, we scanned a library of synthesized compounds illustrated in FIG. 2C. […] To test this possibility, we recoded the response of rTRPV1 transiently expressed in HEK293T cells in the whole-cell or inside-out patch clamp configurations.

rTRPV1 [2] = target: T2, rTRPV1 (Rattus norvegicus, UniProt O35433); test: calcium imaging of rTRPV1 stably expressed in HEK293 cells (concentration-response, capsazepine block); details: for EC50 / Hill coefficient n: normalized concentration-response, fit to the Hill equation, rTRPV1 stably expressed in HEK293 cells
T2 construct: expressed in transfected cells
From the text: (§2) Each point represents the average (±SEM) response of 50 cells. […] Scale bar indicates level of intracellular calcium.
To further analyze the role of the aromatic anchor in TRPV1 activation by spirolactones, we compared the affinity of 13 to its vanilloid derivative 32.

chicken TRPV1 = test: live-cell calcium imaging of HEK293T cells transiently expressing chicken TRPV1; details: compound 300 μM; followed by 2-APB 300 μM
Protocol: (§3) (3A) Top: Captured pseudocolor images of fura-2-loaded HEK293T cells transiently expressing rTRPV1, before (“Basal”) and after the application of synthesized tricyclic spirolactones (300 μM; ‘Comp.’), followed by the subsequent application of capsaicin (2 μM; “Cap”). Scale bar indicates level of intracellular calcium. Bottom: Box and whiskers plot showing the indicated compound (300 μM)-evoked calcium response of HEK293T cells expressing rTRPV1, normalized to the capsaicin (2 μM)-evoked response. Boxes represent the mean of 3-4 independent experiments (each n≥50 cells); only capsaicin-positive cells were analyzed. Statistical significance between the different compounds' normalized responses is indicated as follows: *p≤0.05; ***p≤0.001; ns, no statistical significance (ANOVA followed by multiple comparison test). (3B) Top: Captured pseudocolor images of fura-2-loaded HEK293T cells transiently expressing the wt rTRPV1 (“rV1”; top), chicken TRPV1 (“cV1”; middle), or the VBS mutated receptor rTRPV1-Y511G (“YG”; bottom), before (“Basal”) and after the application of compound 13 (300 μM; “13”), which was followed by the subsequent application of 2-APB (300 μM; “2APB”). Scale bar indicates level of intracellular calcium. […] Boxes represent the mean of 3-4 independent experiments (each n≥50 cells); only capsaicin positive cells were analyzed. […]

rTRPV1(Y511G) = target: T3, rTRPV1(Y511G) (Rattus norvegicus, UniProt O35433, Y511G); test: live-cell calcium imaging of HEK293T cells transiently expressing VBS-mutated rat TRPV1; details: compound 300 μM; followed by 2-APB 300 μM
T3 construct: expressed in transfected cells; host or cells: HEK293T (transient)
Protocol: as §3

[3] = tested on: acutely dissociated trigeminal ganglia neurons; test: neuronal response of acutely dissociated trigeminal ganglia neurons; details: compared with capsaicin sensitivity
Protocol: To examine whether the compact tricyclic spirolactones activate TRPV1, we scanned a library of synthesized compounds illustrated in FIG. 2C. […] Although our compounds are less hydrophobic than other VBS-binding molecules (e.g., capsaicin), most synthesized compounds could not be prepared in physiological salt solutions (i.e., Ringer) at concentrations greater than 1 mM without adding cytotoxic levels of DMSO. […] To confirm that the observed calcium increase is a direct result of TRPV1 activation through the VBS, we used chicken TRPV1, which is insensitive to vanilloids28, and VBS-mutated rat TRPV1 (rTRPV1(Y511G)). […] The functionality and expression of these channels were verified by their sensitivity to 2-aminoethoxydiphenyl borate (2-APB), a non-VBS TRPV1 activator. We next investigated the selectivity of compound 13 to TRPV1 by examining the neuronal response of acutely dissociated trigeminal ganglia neurons. […] A possible explanation to the observed lower response of 13 in comparison to capsaicin might be the accessibility of the compound to the intracellular VBS. To test this possibility, we recoded the response of rTRPV1 transiently expressed in HEK293T cells in the whole-cell or inside-out patch clamp configurations.

rat TRPV1 (rTRPV1) [4] = target: T1, rat TRPV1 (rTRPV1); test: live-cell calcium imaging of HEK293T cells transiently expressing rat TRPV1; details: compound 18 at 0.3 mM or 1 mM applied before compound 13 (1 mM)
rTRPV1 [5] = target: T2, rTRPV1; test: patch clamp of rTRPV1 transiently expressed in HEK293T cells; details: voltage ramps between −80 and +80 mV; compound 32 1 mM, capsaicin 2 μM
From the text: as §2, §1
TRPV1 is a non-selective cationic ion channel with a typical current profile. To examine whether our novel structure architecture activates the channel similarly as other VBS -associated agonists, we analyzed the current profile using the whole-cell configuration of the patch clamp technique. Using voltage ramps between −80 and +80 mV, we analyzed the channel response to 32 and capsaicin.

T1 sequence (O35433 whole entry): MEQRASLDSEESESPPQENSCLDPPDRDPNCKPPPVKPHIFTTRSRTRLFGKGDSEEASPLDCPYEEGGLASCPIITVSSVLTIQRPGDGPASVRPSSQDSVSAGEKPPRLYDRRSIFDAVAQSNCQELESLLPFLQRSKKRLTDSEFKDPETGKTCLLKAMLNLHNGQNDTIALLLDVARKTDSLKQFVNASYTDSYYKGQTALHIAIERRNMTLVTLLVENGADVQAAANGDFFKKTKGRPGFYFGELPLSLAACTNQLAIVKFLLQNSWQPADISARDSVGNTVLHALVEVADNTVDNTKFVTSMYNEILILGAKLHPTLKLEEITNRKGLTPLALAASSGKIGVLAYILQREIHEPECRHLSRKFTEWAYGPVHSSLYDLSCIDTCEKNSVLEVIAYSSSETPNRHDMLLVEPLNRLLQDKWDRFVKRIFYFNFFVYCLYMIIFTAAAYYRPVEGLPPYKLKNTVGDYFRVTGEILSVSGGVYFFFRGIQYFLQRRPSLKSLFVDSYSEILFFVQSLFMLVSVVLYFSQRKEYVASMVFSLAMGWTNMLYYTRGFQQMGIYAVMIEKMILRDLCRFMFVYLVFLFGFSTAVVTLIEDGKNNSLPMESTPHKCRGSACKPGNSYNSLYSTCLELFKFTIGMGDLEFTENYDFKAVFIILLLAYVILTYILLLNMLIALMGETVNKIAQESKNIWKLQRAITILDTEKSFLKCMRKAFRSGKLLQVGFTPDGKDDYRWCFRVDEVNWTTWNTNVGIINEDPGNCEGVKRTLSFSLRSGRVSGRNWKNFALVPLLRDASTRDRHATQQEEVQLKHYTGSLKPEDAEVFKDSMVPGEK
T2 sequence (O35433 whole entry): as above
T3 sequence (O35433 whole entry Y511G): as the sequence (O35433 whole entry) above, with Y511G counted along it

## CC1C[C@H]2CCC[C@H]3CC(=O)O[C@@]23C1 (some centres unmarked) [Compound 15]
Rat TRPV1 (rTRPV1) [1]
  compound-evoked calcium response normalized to the capsaicin (2 μM)-evoked response: active compounds

## O=C1C[C@@H]2CC[C@H]3C/C(=C/c4ccccc4)C[C@@]23O1 [Compound 23]
Rat TRPV1 (rTRPV1) [1]
  compound-evoked calcium response normalized to the capsaicin (2 μM)-evoked response: no activity was detected

## C=C1C[C@H]2CCC[C@H]3CC(=O)O[C@@]23C1 [Compound 10]
Rat TRPV1 (rTRPV1) [1]
  compound-evoked calcium response normalized to the capsaicin (2 μM)-evoked response: active compounds

## Oc1cc2c(cc1O)CN(C(=S)NCCc1ccc(Cl)cc1)CCC2 [capsazepine, reference compound]
rTRPV1 [2]; CPZ 20 μM, pre-incubation or application after pre-activation by 32 (100 and 300 μM)
  inhibition of TRPV1 activation by compound 32: resulted in channel inhibition

## O=C1O[C@@]23CCCC[C@H]2CC[C@H]3[C@H]1Cc1ccccc1 [Compound 34]
Rat TRPV1 (rTRPV1) [1]
  compound-evoked calcium response normalized to the capsaicin (2 μM)-evoked response: significant channel activation
Rat TRPV1 (rTRPV1) [1]; compound 300 μM, compared to compound 13 or 32
  time course of the evoked calcium response: transiently response

## O=C1C[C@@H]2CC[C@@H]3CC=CC[C@]32O1 [Compound 13]
Rat TRPV1 (rTRPV1) [1]
  compound-evoked calcium response normalized to the capsaicin (2 μM)-evoked response: unexpectedly robust response
Chicken TRPV1
  activation of chicken TRPV1 (intracellular calcium): did not activate
rTRPV1(Y511G)
  activation of VBS-mutated rTRPV1-Y511G (intracellular calcium): did not activate
[3]
  selectivity to TRPV1: neuronal response: activated only capsaicin sensitive neurons
rTRPV1 [2]
  EC50: 127 ± 8.9 µM
  Hill coefficient n: 2.7 and 2.7±0.5

## O=C1C[C@@H]2CC[C@@H]3CCCC[C@]32O1 [Compound 18]
Rat TRPV1 (rTRPV1) [1]
  compound-evoked calcium response normalized to the capsaicin (2 μM)-evoked response: most dramatic decrease in the level of activation
Rat TRPV1 (rTRPV1) [4]
  inhibitory effect on the response of compound 13: had no effect

## O=C1O[C@@]23CC=CC[C@H]2CC[C@H]3[C@H]1Cc1ccccc1 [Compound 31]
Rat TRPV1 (rTRPV1) [1]
  compound-evoked calcium response normalized to the capsaicin (2 μM)-evoked response: strongest response; also recorded: capsaicin-like activity

## COc1cc(CNC(=O)CCCC/C=C/C(C)C)ccc1O [capsaicin, reference compound]
rTRPV1 [5]
  current-voltage profile, whole-cell patch clamp: robust, outwardly rectifying currents of similar magnitude

## COc1cc(C[C@H]2C(=O)O[C@@]34CC=CC[C@H]3CC[C@@H]24)ccc1O [Compound 32]
Rat TRPV1 (rTRPV1) [1]
  compound-evoked calcium response normalized to the capsaicin (2 μM)-evoked response: strongest response; also recorded: capsaicin-like activity
rTRPV1 [5]
  current-voltage profile, whole-cell patch clamp: robust, outwardly rectifying currents of similar magnitude; also recorded: elicits the typical TRPV1 outwardly rectifying current
rTRPV1 [2]
  EC50: 12.8 ± 1.6 µM
  Hill coefficient n: 1.4 and 1.4±0.2
